This passage reports fluorescence lifetime results from the Deep4Chem optical property database.

The data set in a line: solvent given as SMILES.

Regarding `O=CC12N=N[C@](C=O)(C3C4CCC(C4)C31)C1[C@@H]3CC[C@@H](C3)[C@H]12` (some centres undefined), the fluorescence lifetime (in CC#N) was 111 ns.

As for `CCCCCCCCOc1ccc(C2=C3C(C)=C(C#Cc4ccc(B(c5c(C)cc(C)cc5C)c5c(C)cc(C)cc5C)cc4)C(C)=[N+]3[B-](F)(F)n3c(C)c(C#Cc4ccc(B(c5c(C)cc(C)cc5C)c5c(C)cc(C)cc5C)cc4)c(C)c32)cc1`, the fluorescence lifetime reads like this: (in CC#N) 4.37 ns; (in CCCCCC) 5.4 ns; (in ClCCl) 4.39 ns.

As to `CN(C)c1ccc(C2=Nc3scc(-c4ccc(N(C)C)cc4)[n+]3[B-](F)(F)O2)cc1`, the fluorescence lifetime (in C1CCOC1) is 0.21 ns.

Turning to `CN(C)c1ccc2ccc3oc(=O)c(-c4ccccc4)nc3c2c1`, the fluorescence lifetime (in c1ccccc1) was found to be 7.2 ns.

Where the note is “in ClCCl”, `CCN(CC)c1ccc2cc(C#N)/c(=N\C(=O)c3ccco3)oc2c1` showed a fluorescence lifetime of 3 ns.

Regarding `CCN(CC)c1ccc(-c2nc3c4ccccc4n(C)c3nc2-c2ccc(B(c3c(C)cc(C)cc3C)c3c(C)cc(C)cc3C)cc2)cc1`, under “in C1CCOC1”, the fluorescence lifetime amounted to 9.21 ns.

On to `COc1c(-c2ccc(N(C)C)cc2)oc2ccccc2c1=O`, for which the fluorescence lifetime is, setting by setting: (in C1CCCCC1) 0.67 ns; (in C1CCOC1) 2.05 ns; (in CC#N) 2.71 ns; (in CCOC(C)=O) 1.67 ns; (in CCOCC) 0.88 ns.

For the molecule `O=C([O-])c1ccc(C(=O)[O-])c2cc3ccccc3cc12`, for the setting “in CN(C)C=O”, the fluorescence lifetime was determined as 1 ns.

Turning to `FC(F)(F)c1ccc(C2=CC3=c4cc(-c5ccc(C(F)(F)F)cc5)c5nc(C(F)(F)C(F)(F)C(F)(F)F)nc6c(-c7ccc(C(F)(F)F)cc7)cc(c4c65)C4=CC(c5ccc(C(F)(F)F)cc5)=C5N=C(C(F)(F)C(F)(F)C(F)(F)F)N=C2C5C43)cc1` (centres undefined), the fluorescence lifetime (in C1CCOC1) came out at 2.8 ns.

Turning to `CC(C)(C)c1ccc(Oc2c3c4c(cc(Oc5ccc(C(C)(C)C)cc5)c5c6c(Oc7ccc(C(C)(C)C)cc7)c(Oc7ccc(C(C)(C)C)cc7)c7c8c(cc(Oc9ccc(C(C)(C)C)cc9)c(c(c2Oc2ccc(C(C)(C)C)cc2)c45)c86)C(=O)OC7=O)C(=O)OC3=O)cc1`, where the note is “in ClC(Cl)Cl”, the fluorescence lifetime was 6 ns.

On to `CCCCCCCCn1c(=O)c2cc3cc4cc5c(=O)n(CCCCCCCC)c(=O)c5cc4c(C#Cc4ccc(N(c5ccccc5)c5ccccc5)cc4)c3cc2c1=O`, for which, under “in ClC(Cl)Cl”, the fluorescence lifetime amounted to 4.2 ns.

Where the note is “in Cc1ccccc1”, `N#Cc1c(-n2c3ccc(-c4ccccc4)cc3c3cc(-c4ccccc4)ccc32)c(-n2c3ccc(-c4ccccc4)cc3c3cc(-c4ccccc4)ccc32)c(C#N)c(-n2c3ccc(-c4ccccc4)cc3c3cc(-c4ccccc4)ccc32)c1-n1c2ccc(-c3ccccc3)cc2c2cc(-c3ccccc3)ccc21` returned a fluorescence lifetime of 9 ns.

Turning to `COC(=O)C(NC(=O)OC(C)(C)C)c1ccc2oc(-c3ccc(C#N)cc3)nc2c1` (centres undefined), the fluorescence lifetime by setting is: (in CC1CCCCC1) 1.28 ns; (in CC#N) 1.87 ns; (in CO) 1.92 ns.

For `COc1ccc(-c2nc(C(C)=O)c(C)o2)cc1`, the fluorescence lifetime (in CC#N) came to 3.92 ns; the fluorescence lifetime (in CCO) is 2.31 ns; the fluorescence lifetime (in CCOC(C)=O) came to 4.53 ns; the fluorescence lifetime (in CCOCC) was found to be 1.79 ns; the fluorescence lifetime (in ClCCl) amounted to 1.7 ns.

In turn, `N#Cc1cc(N2c3ccccc3Oc3ccccc32)c(N2c3ccccc3Oc3ccccc32)cc1C#N` had a fluorescence lifetime (in c1ccc2c(c1)c1ccccc1n2-c1ccc(-c2ccc(-n3c4ccccc4c4ccccc43)cc2)cc1) of 20 ns.

Consider `c1ccc(N2N=C(c3c4ccccc4cc4ccccc34)CC2c2ccc3ccc4cccc5ccc2c3c45)cc1` (centres undefined), for which, for the setting “in ClCCl”, the fluorescence lifetime was found to be 1.17 ns.

Regarding `CC(C)[Si](C#Cc1cc2c(C#C[Si](C(C)C)(C(C)C)C(C)C)c(C#C[Si](C(C)C)(C(C)C)C(C)C)c3cc(C#C[Si](C(C)C)(C(C)C)C(C)C)cc4c(C#C[Si](C(C)C)(C(C)C)C(C)C)c(C#C[Si](C(C)C)(C(C)C)C(C)C)c(c1)c2c34)(C(C)C)C(C)C`, the fluorescence lifetime (in ClCCl) was 14.1 ns.

The molecule `Cc1cc(C)c(B(c2ccc(C#Cc3cc4ccc5cc(C#Cc6ccc(B(c7c(C)cc(C)cc7C)c7c(C)cc(C)cc7C)cc6)cc6ccc(c3)c4c56)cc2)c2c(C)cc(C)cc2C)c(C)c1` returned a fluorescence lifetime (in Cc1ccccc1) of 58 ns.

For `COCCOCCOCCN1C(=O)c2cc(NCCOCCO)c3c4c(cc(NCCOCCO)c(c24)C1=O)C(=O)N(CCOCCOCCOC)C3=O`, the fluorescence lifetime reads like this: (in CO) 8.2 ns; (in ClC(Cl)Cl) 9.6 ns; (in O) 4.3 ns.

In the case of `c1ccc(-c2nc3c(c4c2-c2ccccc2CC4)-c2ccccc2CC3)cc1`, the fluorescence lifetime came to 1.39 ns (in CC#N), 0.26 ns (in CCCCCC), 0.29 ns (in CO) and 0.51 ns (in CS(C)=O).

Where the note is “in ClC(Cl)Cl”, `COc1ccc(C2=Cc3c4ccccc4cc[n+]3[B-](F)(F)O2)cc1` showed a fluorescence lifetime of 0.958 ns.

The molecule `O=C1c2ccccc2-c2ccc(Nc3nc(Cl)nc(Cl)n3)c3cccc1c23` showed a fluorescence lifetime (in CC#N) of 6.6 ns; a fluorescence lifetime (in CC(C)=O) of 4.5 ns; a fluorescence lifetime (in CC(C)O) of 7.7 ns; a fluorescence lifetime (in CCCCOCCCC) of 0.5 ns; a fluorescence lifetime (in CCOC(C)=O) of 1.6 ns; a fluorescence lifetime (in CCOCC) of 0.7 ns. In addition, the fluorescence lifetime turned out to be 7.6 ns (in CO); 0.9 ns (in Cc1ccccc1); 2 ns (in Clc1ccccc1); 6 ns (in N#Cc1ccccc1); 3.4 ns (in O=C1CCCCC1).

With `N#Cc1c(-n2c3ccccc3c3ccccc32)c(-n2c3ccc(-c4ccccc4)cc3c3cc(-c4ccccc4)ccc32)c(-n2c3ccccc3c3ccccc32)c(-n2c3ccc(-c4ccccc4)cc3c3cc(-c4ccccc4)ccc32)c1-n1c2ccccc2c2ccccc21`, the fluorescence lifetime is, setting by setting: (in Cc1ccccc1) 5.8 ns; (in c1cc(-c2cccc(-n3c4ccccc4c4ccccc43)c2)cc(-n2c3ccccc3c3ccccc32)c1) 4.5 ns.

For `Clc1ccc(/C=C/c2nc3ccccc3o2)cc1`, the fluorescence lifetime (in C1CCCCC1) amounted to 0.2 ns and the fluorescence lifetime (in CO) stood at 0.16 ns.

The molecule `COC(=O)c1c(C(=O)OC)c2ccc(C)nn2c1C` yielded a fluorescence lifetime (in CCCCCC) of 14.1 ns.

Regarding `CC1=[N+]2C(=C(c3ccccc3)c3ccc(C)n3[B-]2(F)F)C=C1`, the fluorescence lifetime runs as follows: (in C1CCCCC1) 1.94 ns; (in CC#N) 1.33 ns; (in CCOC(C)=O) 1.71 ns; (in CO) 1.46 ns; (in Cc1ccccc1) 2.65 ns; (in ClC(Cl)Cl) 2.65 ns.

`CN(C)CCCN1c2ccccc2CCc2ccc(Cl)cc21` came in with a fluorescence lifetime (in CC#N) of 0.22 ns, a fluorescence lifetime (in CO) of 0.19 ns and a fluorescence lifetime (in O) of 0.18 ns.

With `CC/C=C/C=C/C=C/C=C/CCCCCCCC(=O)O`, the fluorescence lifetime (in CCCCCCCCCC) is 3.1 ns and the fluorescence lifetime (in CCCCO) turned out to be 1.5 ns.

For `CCCCCCCCCCCCCCCCN(CCCCCCCCCCCCCCCC)c1ccc(/C=C/c2cc[n+](Cc3cc(C[n+]4ccc(/C=C/c5ccc(N(CCCCCCCCCCCCCCCC)CCCCCCCCCCCCCCCC)cc5)cc4)cc(C[n+]4ccc(/C=C/c5ccc(N(CCCCCCCCCCCCCCCC)CCCCCCCCCCCCCCCC)cc5)cc4)c3)cc2)cc1`, the fluorescence lifetime was 0.8 ns (in CCCCCCCCO); 0.17 ns (in CCO); 0.11 ns (in CO); 0.92 ns (in ClC(Cl)Cl); 0.74 ns (in ClCCl).

Take `CNc1cccc2c1-c1ccccc1C2=O`: the fluorescence lifetime by setting is: (in C1CCCCC1) 8.8 ns; (in CC#N) 2.2 ns; (in c1ccccc1) 8.4 ns.

Take `CCCN1C(=O)C(=CC=CC=C2Oc3ccccc3N2CCCS(=O)(=O)[O-])C(=O)N(CCC)C1=S`: the fluorescence lifetime by setting is: (in CC(C)=O) 0.854 ns; (in CCCCO) 0.821 ns; (in CCO) 0.465 ns; (in CO) 0.288 ns; (in ClC(Cl)Cl) 0.712 ns.

For the setting “in C1CCCCC1”, `C[Si](C)(C)C#Cc1ccc(C#C[Si](C)(C)C)c2ccccc12` showed a fluorescence lifetime of 2 ns.

In the case of `N#Cc1cccc2cc[nH]c12`, the fluorescence lifetime is, setting by setting: (in C1CCOC1) 6.9 ns; (in C1COCCO1) 7.5 ns; (in CC#N) 8 ns; (in CC(C)O) 9 ns; (in CCO) 8.7 ns; (in CO) 8.2 ns. This molecule gave a fluorescence lifetime (in CS(C)=O) of 14.5 ns; a fluorescence lifetime (in NC=O) of 15.7 ns; a fluorescence lifetime (in O) of 2 ns; a fluorescence lifetime (in OCC(F)(F)F) of 1.2 ns; a fluorescence lifetime (in [2H]O[2H]) of 2.3 ns.

Consider `COC(=O)C(NC(=O)OC(C)(C)C)c1ccc2oc(-c3ccc(OC(=O)c4ccccc4)cc3OC(=O)c3ccccc3)nc2c1` (centres undefined), for which the fluorescence lifetime was 0.358 ns (in CC1CCCCC1), 0.003 ns (in CC#N) and 0.01 ns (in CO).

In turn, `CC1=C(I)C(C)=[N+]2C1=C(c1c(-c3ccccn3)nc3ccccn13)c1c(C)c(I)c(C)n1[B-]2(F)F` had a fluorescence lifetime (in ClCCl) of 0.4 ns.

In the case of `COc1ccc(C2=CC(c3ccccc3)=[N+]3C2=Nc2c(-c4ccc(OC)cc4)cc(-c4ccccc4)n2[B-]3(F)F)cc1`, the fluorescence lifetime (in Cc1ccccc1) was determined as 1.56 ns.

For `CC(C)[Si]1(C(C)C)c2ccccc2-c2ccc(N(C)C)cc21`, the fluorescence lifetime reads like this: (in C1CCCCC1) 6.5 ns; (in ClCCl) 4 ns.

For the molecule `CCOC(=O)CCCCCn1c2ccccc2c(=O)c2cc(I)ccc21`, under “in CO”, the fluorescence lifetime worked out at 1.7 ns.

`Fc1nc(F)c(F)c(C#Cc2cc3c(cc2C#Cc2c(F)c(F)nc(F)c2F)OC2(CCCCC2)O3)c1F` gave a fluorescence lifetime (in CC#N) of 5.3 ns.

`C(#Cc1ccccc1)C(C#Cc1ccccc1)=Cc1ccc(C=C(C#Cc2ccccc2)C#Cc2ccccc2)cc1` showed a fluorescence lifetime (in ClC(Cl)Cl) of 1.2 ns.

`Cc1cc(C)c(B(c2ccccc2N(c2ccccc2)c2ccccc2)c2c(C)cc(C)cc2C)c(C)c1` returned a fluorescence lifetime (in Cc1ccccc1) of 27 ns.

Where the note is “in ClCCl”, `Cn1c(=O)cc(C(=O)c2ccccc2)c2sc(-c3ccc(C(F)(F)F)cc3)cc21` had a fluorescence lifetime of 1.66 ns.

As to `CC1(C)c2ccccc2N(c2ccccc2)c2ccc(C(=O)c3ccc4c(c3)C(C)(C)c3ccccc3N4c3ccccc3)cc21`, the fluorescence lifetime (in O=P(c1ccccc1)(c1ccccc1)c1ccccc1Oc1ccccc1P(=O)(c1ccccc1)c1ccccc1) amounted to 0.81 ns.

For `c1ccc([C@]23CC[C@H](CC2)N=N3)cc1`, under “in CC#N”, the fluorescence lifetime turned out to be 2.5 ns.
